This test concerns the target Human plasma kallikrein (Homo sapiens (Human), UniProt P03952). In words: In vitro plasma kallikrein inhibition assay (chromogenic substrate D-Pro-Phe-Arg-pNa, absorbance at 405 nm, IC50 determination). It is filed as biochemical. As to conditions: read-out: KLKB1 pIC50 (converted).
Chain of Human plasma kallikrein (P03952 391-638): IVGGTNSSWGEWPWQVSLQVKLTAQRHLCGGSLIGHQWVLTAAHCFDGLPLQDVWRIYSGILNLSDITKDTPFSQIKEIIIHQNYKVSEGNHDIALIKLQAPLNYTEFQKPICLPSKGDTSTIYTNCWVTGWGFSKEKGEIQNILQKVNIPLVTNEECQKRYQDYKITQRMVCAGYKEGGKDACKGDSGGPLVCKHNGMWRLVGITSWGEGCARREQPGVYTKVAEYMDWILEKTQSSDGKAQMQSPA
Chain of Human plasma kallikrein (P03952 20-390 partner): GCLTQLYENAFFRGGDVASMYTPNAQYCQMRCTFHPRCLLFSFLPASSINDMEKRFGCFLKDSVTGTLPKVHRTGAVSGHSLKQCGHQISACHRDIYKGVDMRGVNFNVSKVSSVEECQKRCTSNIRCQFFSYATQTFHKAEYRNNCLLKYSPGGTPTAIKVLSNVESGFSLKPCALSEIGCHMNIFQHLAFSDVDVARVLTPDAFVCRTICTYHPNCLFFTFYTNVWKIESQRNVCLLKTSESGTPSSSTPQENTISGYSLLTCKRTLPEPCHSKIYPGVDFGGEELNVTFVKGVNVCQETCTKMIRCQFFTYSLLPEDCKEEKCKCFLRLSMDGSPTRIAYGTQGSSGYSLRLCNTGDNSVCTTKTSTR
For the compound `Cc1cc(N)nc(C)c1CNC(=O)c1ccc2c(c1)[C@@H]1O[C@H]2c2ccc(Cn3cc(F)cn3)cc21` (single isomer, unassigned) [Example 178], the IC50 was 1 nM.

As to `Cc1cc(N)nc(C)c1CNC(=O)c1ccc2c(c1)[C@@H]1O[C@H]2c2ccc(Cn3cc(Cl)cn3)cc21` (single isomer, unassigned) [Example 179], the IC50 was 1 nM.

With `CCc1cc(N)nc(C)c1CNC(=O)c1ccc2c(c1)[C@@H]1O[C@H]2c2ccc(-c3ccc(F)cc3F)cc21` (single isomer, unassigned) [Example 183], the IC50 was 12 nM.

Regarding `Cc1cc(N)nc(C)c1CNC(=O)c1ccc2c(c1)[C@@H]1O[C@H]2c2cc(Oc3cccc(F)c3)ccc21` (single isomer, unassigned) [Example 184], the IC50 is 75.9 nM.

Turning to `Cc1cc(N)nc(C)c1CNC(=O)c1ccc2c(c1)[C@@H]1O[C@H]2c2ccc(Oc3ccn(C)n3)cc21` (single isomer, unassigned) [Example 185], the IC50 is 2240 nM.

With `Cc1cc(N)nc(C)c1CNC(=O)c1ccc2c(c1)[C@@H]1O[C@H]2c2ccc(-n3c(=O)ccn3C)cc21` (single isomer, unassigned) [Example 186], the IC50 was 1820 nM.

`N=C(N)c1ccc(CNC(=O)c2ccc3c(c2)[C@@H]2O[C@H]3c3ccc(-c4ccccc4F)cc32)cc1` (single isomer, unassigned) [Example 187]: the IC50 was 1.74 nM.

For `Cc1cc(N)nc(C)c1CNC(=O)c1ccc2c(c1)[C@@H]1O[C@H]2c2ccc(Oc3cccc(F)c3)cc21` (single isomer, unassigned) [Example 191], the IC50 was 105 nM.

For the compound `Cc1nc(N)cc(Cl)c1CNC(=O)c1ccc2c(c1)[C@@H]1O[C@H]2c2ccc(-c3ccc(F)cc3F)cc21` (single isomer, unassigned) [Example 192], the IC50 was 977 nM.

Regarding `Cc1cc(N)nc(C)c1CNC(=O)c1ccc2c(c1)[C@@H]1O[C@H]2c2ccc(C(=O)N3CC4CCC(C3)O4)cc21` (single isomer, unassigned) [Example 193], the IC50 was 1580 nM.

As for `Cc1cc(N)nc(C)c1CNC(=O)c1ccc2c(c1)[C@@H]1O[C@H]2c2ccc(C(=O)N(C)c3ccccc3)cc21` (single isomer, unassigned) [Example 194], the IC50 is 1660 nM.

Consider `Cc1cc(N)nc(C)c1CNC(=O)c1ccc2c(c1)[C@@H]1O[C@H]2c2ccc(-c3cccc[n+]3[O-])cc21` (single isomer, unassigned) [Example 195], for which the IC50 was 1050 nM.

In the case of `Cc1cc(N)nc(C)c1CNC(=O)c1ccc2c(c1)[C@@H]1O[C@H]2c2ccc(C(=O)N(C)c3ccc(F)cc3)cc21` (single isomer, unassigned) [Example 196], the IC50 was 4680 nM.

In the case of `Cc1cc(C(=N)N)cc(C)c1CNC(=O)c1ccc2c(c1)[C@@H]1O[C@H]2c2ccc(-c3ccc(F)cc3F)cc21` (single isomer, unassigned) [Example 199], the IC50 is 0.741 nM.

On to `N=C(N)c1ccc(CNC(=O)c2ccc3c(c2)[C@@H]2O[C@H]3c3ccc(-c4ccc(F)cc4)cc32)cc1` (single isomer, unassigned) [Example 201], for which the IC50 was 1 nM.

For `Nc1noc2cc(CNC(=O)c3ccc4c(c3)[C@@H]3O[C@H]4c4ccc(-c5ccc(F)cc5F)cc43)ccc12` (single isomer, unassigned) [Example 205], the IC50 is 1000 nM.

For `N=C(N)c1ccc(CNC(=O)c2ccc3c(c2)[C@@H]2O[C@H]3c3ccc(Br)cc32)cc1` (single isomer, unassigned) [Example 206], the IC50 was 37.2 nM.

For the compound `Nc1n[nH]c2cc(CNC(=O)c3ccc4c(c3)[C@@H]3O[C@H]4c4ccc(-c5ccc(F)cc5F)cc43)ccc12` (single isomer, unassigned) [Example 207], the IC50 is 4900 nM.

On to `Cc1nc(N)cc(C(C)C)c1CNC(=O)c1ccc2c(c1)[C@@H]1O[C@H]2c2ccc(-c3ccc(F)cc3F)cc21` (single isomer, unassigned) [Example 208], for which the IC50 is 1 nM.

In the case of `N=C(N)c1ccc(CNC(=O)c2ccc3c(c2)[C@@H]2O[C@H]3c3ccc(-c4ccc(F)cc4F)cc32)cc1F` (single isomer, unassigned) [Example 211], the IC50 is 11.7 nM.

Take `Cc1cc(N)nc(C)c1CNC(=O)c1ccc2c(c1)[C@@H]1O[C@H]2c2ccc(-c3cccnc3C)cc21` (single isomer, unassigned) [Example 212]: the IC50 was 70.8 nM.

Consider `COc1ncccc1-c1ccc2c(c1)[C@H]1O[C@@H]2c2ccc(C(=O)NCc3c(C)cc(N)nc3C)cc21` (single isomer, unassigned) [Example 213], for which the IC50 is 676 nM.

As for `Cc1cc(N)nc(C)c1CNC(=O)c1ccc2c(c1)[C@@H]1O[C@H]2c2ccc(-c3ccc(F)c[n+]3[O-])cc21` (single isomer, unassigned) [Example 214], the IC50 is 83.2 nM.

As to `Cc1ccncc1-c1ccc2c(c1)[C@H]1O[C@@H]2c2ccc(C(=O)NCc3c(C)cc(N)nc3C)cc21` (single isomer, unassigned) [Example 215], the IC50 is 79.4 nM.

As to `Cc1ccc(-c2ccc3c(c2)[C@H]2O[C@@H]3c3ccc(C(=O)NCc4cccc5c(N)nccc45)cc32)c(C#N)c1` (single isomer, unassigned) [Example 216], the IC50 is 15.8 nM.

For the compound `N=C(N)c1ccc(CNC(=O)c2ccc3c(c2)[C@@H]2O[C@H]3c3ccc(-c4ccc(Cl)s4)cc32)cc1` (single isomer, unassigned) [Example 217], the IC50 was 2 nM.

As for `Cc1cc(N)nc(C)c1CNC(=O)c1ccc2c(c1)[C@@H]1O[C@H]2c2ccc(N(C)c3cccc(F)c3)cc21` (single isomer, unassigned) [Example 218], the IC50 is 26.9 nM.

As to `C=Cc1cc(N)nc(C)c1CNC(=O)c1ccc2c(c1)[C@@H]1O[C@H]2c2ccc(-c3ccc(F)cc3F)cc21` (single isomer, unassigned) [Example 219], the IC50 was 17 nM.

Consider `Cc1cc(N)nc(C)c1CNC(=O)c1ccc2c(c1)[C@@H]1O[C@H]2c2ccc(C(=O)c3ccccc3)cc21` (single isomer, unassigned) [Example 220], for which the IC50 is 12 nM.

With `N=C(NC(=O)c1ccc2c(c1)[C@@H]1O[C@H]2c2ccc(-c3ccc(F)cc3F)cc21)c1ccc(N)cc1` (single isomer, unassigned) [Example 221], the IC50 was 10000 nM.

Take `Cc1nc(N)cc(C2=CCOCC2)c1CNC(=O)c1ccc2c(c1)[C@@H]1O[C@H]2c2ccc(-c3ccc(F)cc3F)cc21` (single isomer, unassigned) [Example 222]: the IC50 is 28.2 nM.

Consider `Cc1ccc(-c2ccc3c(c2)[C@H]2O[C@@H]3c3ccc(C(=O)NCc4ccc(C(=N)N)cc4)cc32)o1` (single isomer, unassigned) [Example 223], for which the IC50 is 33.9 nM.

Consider `Cc1cc(N)nc(C)c1CNC(=O)c1ccc2c(c1)[C@@H]1O[C@H]2c2ccc(Cn3ccccc3=O)cc21` (single isomer, unassigned) [Example 224], for which the IC50 is 1 nM.

In the case of `Nc1nccc2c(CNC(=O)c3ccc4c(c3)[C@@H]3O[C@H]4c4ccc(C(=O)c5ccccc5)cc43)cccc12` (single isomer, unassigned) [Example 226], the IC50 was 36.3 nM.

For `C=C(C)c1cc(N)nc(C)c1CNC(=O)c1ccc2c(c1)[C@@H]1O[C@H]2c2ccc(-c3ccc(F)cc3F)cc21` (single isomer, unassigned) [Example 227], the IC50 was 12 nM.

For `Cc1cc(N)nc(C)c1CNC(=O)c1ccc2c(c1)[C@@H]1O[C@H]2c2ccc(C(=O)c3cccc(F)c3)cc21` (single isomer, unassigned) [Example 228], the IC50 was 12 nM.

With `Cc1cc(N)nc(C)c1CNC(=O)c1ccc2c(c1)[C@@H]1O[C@H]2c2ccc(NC(=O)c3ccccc3)cc21` (single isomer, unassigned) [Example 229], the IC50 was 10000 nM.

For the compound `CCN(c1cccc(F)c1)c1ccc2c(c1)[C@H]1O[C@@H]2c2ccc(C(=O)NCc3c(C)cc(N)nc3C)cc21` (single isomer, unassigned) [Example 230], the IC50 is 12 nM.

In the case of `N=C(N)c1ccc(CNC(=O)c2ccc3c(c2)[C@@H]2O[C@H]3c3ccc(Oc4cccc(F)c4)cc32)cc1` (single isomer, unassigned) [Example 231], the IC50 is 33.9 nM.

Consider `N=C(N)c1ccc(CNC(=O)c2ccc3c(c2)[C@@H]2O[C@H]3c3ccc(N4CC5CCC(C4)O5)cc32)cc1` (single isomer, unassigned) [Example 232], for which the IC50 was 38.9 nM.

`CCc1ccc2c(c1)[C@H]1O[C@@H]2c2ccc(C(=O)NCc3ccc(C(=N)N)cc3)cc21` (single isomer, unassigned) [Example 233]: the IC50 was 7.08 nM.

With `CCN(C(=O)c1ccccc1)c1ccc2c(c1)[C@H]1O[C@@H]2c2ccc(C(=O)NCc3c(C)cc(N)nc3C)cc21` (single isomer, unassigned) [Example 234], the IC50 is 10000 nM.

Consider `Cc1cc(N)nc(C)c1CNC(=O)c1ccc2c(c1)[C@@H]1O[C@H]2c2ccc(CN3CCCN(C)C3=O)cc21` (single isomer, unassigned) [Example 235], for which the IC50 is 12.9 nM.

As for `N=C(N)c1ccc(CNC(=O)c2ccc3c(c2)[C@@H]2O[C@H]3c3ccc(N4CCCC4)cc32)cc1` (single isomer, unassigned) [Example 236], the IC50 is 2 nM.

As to `Nc1noc2c(CNC(=O)c3ccc4c(c3)[C@@H]3O[C@H]4c4ccc(-c5ccccc5F)cc43)cccc12` (single isomer, unassigned) [Example 237], the IC50 is 10000 nM.

Consider `N=C(N)c1ccc(CNC(=O)c2ccc3c(c2)[C@@H]2O[C@H]3c3ccccc32)cc1` (single isomer, unassigned) [Example 238], for which the IC50 was 324 nM.

With `CCN(c1ccc2c(c1)[C@H]1O[C@@H]2c2ccc(C(=O)NCc3c(C)cc(N)nc3C)cc21)c1ccccc1F` (single isomer, unassigned) [Example 239], the IC50 is 234 nM.

Regarding `Cc1c(CNC(=O)c2ccc3c(c2)[C@@H]2O[C@H]3c3ccc(-c4ccccc4F)cc32)cnc(N)c1C` (single isomer, unassigned) [Example 242], the IC50 is 2750 nM.

For `N=C(N)c1ccc(NC(=O)c2ccc3c(c2)[C@@H]2O[C@H]3c3ccc(-c4ccc(F)cc4F)cc32)cc1` (single isomer, unassigned) [Example 244], the IC50 is 10700 nM.
